Source: PubChem BioAssay (NCI)
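A five-concentration, 48-hour dose response in 96-well plates underlies each endpoint, interpolated linearly between surrounding concentrations. GI50: concentration for 50% inhibition of growth. TGI is the concentration that stops growth completely.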

Legend:
Test in all cases: DTP human tumour cell line panel, 48 h
MDA-MB-231 breast = tested on: MDA-MB-231 breast
SW-620 colon = tested on: SW-620 colon
EKVX NSCLC = tested on: EKVX NSCLC
RPMI-8226 leukemia = tested on: RPMI-8226 leukemia
HCT-15 colon = tested on: HCT-15 colon
OVCAR-3 ovarian = tested on: OVCAR-3 ovarian
SF-295 CNS = tested on: SF-295 CNS
HCT-116 colon = tested on: HCT-116 colon
ACHN renal = tested on: ACHN renal
A498 renal = tested on: A498 renal
T-47D breast = tested on: T-47D breast
M14 melanoma = tested on: M14 melanoma
SK-MEL-28 melanoma = tested on: SK-MEL-28 melanoma
MCF7 breast = tested on: MCF7 breast
NCI-H23 lung = tested on: NCI-H23 lung
OVCAR-5 ovarian = tested on: OVCAR-5 ovarian
SF-539 CNS = tested on: SF-539 CNS
LOX IMVI melanoma = tested on: LOX IMVI melanoma
NCI-H460 lung = tested on: NCI-H460 lung
786-0 renal = tested on: 786-0 renal
IGROV1 ovarian = tested on: IGROV1 ovarian
CCRF-CEM leukemia = tested on: CCRF-CEM leukemia
SK-MEL-2 melanoma = tested on: SK-MEL-2 melanoma
MALME-3M melanoma = tested on: MALME-3M melanoma
COLO 205 colon = tested on: COLO 205 colon
U251 CNS = tested on: U251 CNS
HCC-2998 colon = tested on: HCC-2998 colon
HS 578T breast = tested on: HS 578T breast
SK-OV-3 ovarian = tested on: SK-OV-3 ovarian
MOLT-4 leukemia = tested on: MOLT-4 leukemia
SN12C renal = tested on: SN12C renal
MDA-N = tested on: MDA-N
TK-10 renal = tested on: TK-10 renal
UACC-62 melanoma = tested on: UACC-62 melanoma
PC-3 prostate = tested on: PC-3 prostate
SR leukemia = tested on: SR leukemia
KM12 colon = tested on: KM12 colon
OVCAR-8 ovarian = tested on: OVCAR-8 ovarian
NCI-H226 lung = tested on: NCI-H226 lung
SK-MEL-5 melanoma = tested on: SK-MEL-5 melanoma
UO-31 renal = tested on: UO-31 renal
SNB-75 CNS = tested on: SNB-75 CNS
HL-60(TB) leukemia = tested on: HL-60(TB) leukemia
SF-268 CNS = tested on: SF-268 CNS
HOP-92 NSCLC = tested on: HOP-92 NSCLC
RXF 393 renal = tested on: RXF 393 renal
OVCAR-4 ovarian = tested on: OVCAR-4 ovarian
CAKI-1 renal = tested on: CAKI-1 renal
K-562 leukemia = tested on: K-562 leukemia
HT29 colon = tested on: HT29 colon
DU-145 prostate = tested on: DU-145 prostate
NCI/ADR-RES ovarian = tested on: NCI/ADR-RES ovarian
NCI-H522 lung = tested on: NCI-H522 lung
UACC-257 melanoma = tested on: UACC-257 melanoma
HOP-62 NSCLC = tested on: HOP-62 NSCLC
SNB-19 CNS = tested on: SNB-19 CNS
A549 NSCLC = tested on: A549 NSCLC
MDA-MB-435 = tested on: MDA-MB-435
BT-549 breast = tested on: BT-549 breast

With CC(C)=Cc1cc2c(cc1O)CCC1C2CC[C@@]2(C)C1CC[C@@H]2O (stereo partly specified) the TGI (MDA-MB-231 breast) was 35.2 µM, the TGI (SW-620 colon) was 23.6 µM and the TGI (EKVX NSCLC) was 31.5 µM. For the same molecule, the TGI (RPMI-8226 leukemia) was 26 µM, the TGI (HCT-15 colon) was 24.4 µM and the GI50 (OVCAR-3 ovarian) was 5.27 µM. The TGI (OVCAR-3 ovarian) was 19.9 µM, the TGI (SF-295 CNS) was 7.57 µM and the TGI (HCT-116 colon) was 23.4 µM. It also gave a TGI (ACHN renal) of 29.5 µM, a TGI (A498 renal) of 29.9 µM and a TGI (T-47D breast) of 89.5 µM. It also gave a TGI (M14 melanoma) of 22.8 µM, a TGI (SK-MEL-28 melanoma) of 30.2 µM and a TGI (MCF7 breast) of 37.4 µM. For the same molecule, the TGI (NCI-H23 lung) was 35.2 µM, the TGI (OVCAR-5 ovarian) was 31.8 µM and the GI50 (SF-539 CNS) was 7.6 µM. For the same molecule, the TGI (SF-539 CNS) was 22.4 µM, the TGI (LOX IMVI melanoma) was 16.1 µM and the TGI (NCI-H460 lung) was 26.1 µM. For the same molecule, the TGI (786-0 renal) was 25 µM, the TGI (IGROV1 ovarian) was 29.9 µM and the TGI (CCRF-CEM leukemia) was 40.8 µM. The TGI (SK-MEL-2 melanoma) was 32.7 µM, the TGI (MALME-3M melanoma) was 22.5 µM and the TGI (COLO 205 colon) was 32.7 µM. For the same molecule, the TGI (U251 CNS) was 22.2 µM, the TGI (HCC-2998 colon) was 31.8 µM and the TGI (HS 578T breast) was 65.6 µM. For the same molecule, the TGI (SK-OV-3 ovarian) was 35 µM, the TGI (MOLT-4 leukemia) was 25.3 µM and the TGI (SN12C renal) was 30 µM. The TGI (MDA-N) was 7.14 µM, the TGI (TK-10 renal) was 9.68 µM and the GI50 (UACC-62 melanoma) was 11 µM. For the same molecule, the TGI (UACC-62 melanoma) was 24.7 µM, the TGI (PC-3 prostate) was 28.6 µM and the TGI (SR leukemia) was 6.94 µM. It also gave a TGI (KM12 colon) of 25.3 µM, a TGI (OVCAR-8 ovarian) of 40.7 µM and a TGI (NCI-H226 lung) of 26.1 µM. It also gave a TGI (SK-MEL-5 melanoma) of 19.3 µM, a TGI (UO-31 renal) of 27.4 µM and a TGI (SNB-75 CNS) of 24.8 µM. It also gave a TGI (HL-60(TB) leukemia) of 37.5 µM, a TGI (SF-268 CNS) of 36.2 µM and a TGI (HOP-92 NSCLC) of 42.1 µM. The TGI (RXF 393 renal) was 20.9 µM, the TGI (OVCAR-4 ovarian) was 61 µM and the TGI (CAKI-1 renal) was 29.5 µM. It also gave a TGI (K-562 leukemia) of 13.8 µM, a TGI (HT29 colon) of 30.8 µM and a TGI (DU-145 prostate) of 27.7 µM. The TGI (NCI/ADR-RES ovarian) was 28 µM, the TGI (NCI-H522 lung) was 31.2 µM and the TGI (UACC-257 melanoma) was 30.5 µM. For the same molecule, the GI50 (HOP-62 NSCLC) was 15 µM, the TGI (HOP-62 NSCLC) was 31.7 µM and the TGI (SNB-19 CNS) was 24.4 µM. The TGI (A549 NSCLC) was 27.5 µM, the GI50 (MDA-MB-435) was 3.02 µM and the TGI (MDA-MB-435) was 11.7 µM.
Molecule COc1ccc2nc3cc(Cl)ccc3c(Nc3ccc(O)c(CN4CCN(C)CC4)c3)c2c1 has a TGI (MDA-MB-231 breast) of 2.99 µM, a TGI (SW-620 colon) of 5.1 µM and a TGI (EKVX NSCLC) of 3.52 µM. The TGI (RPMI-8226 leukemia) was 4.85 µM, the TGI (HCT-15 colon) was 5.68 µM and the TGI (OVCAR-3 ovarian) was 3.76 µM. For the same molecule, the TGI (SF-295 CNS) was 3.81 µM, the TGI (HCT-116 colon) was 3.74 µM and the TGI (ACHN renal) was 3 µM. For the same molecule, the TGI (A498 renal) was 8.68 µM, the TGI (T-47D breast) was 4.48 µM and the TGI (M14 melanoma) was 3.53 µM. For the same molecule, the TGI (SK-MEL-28 melanoma) was 3.62 µM, the TGI (MCF7 breast) was 3.12 µM and the TGI (OVCAR-5 ovarian) was 5.34 µM. The TGI (SF-539 CNS) was 3.22 µM, the TGI (NCI-H460 lung) was 3.22 µM and the TGI (786-0 renal) was 3 µM. The TGI (IGROV1 ovarian) was 3.3 µM, the TGI (SK-MEL-2 melanoma) was 3.29 µM and the TGI (MALME-3M melanoma) was 3.21 µM. For the same molecule, the TGI (COLO 205 colon) was 3.04 µM, the TGI (U251 CNS) was 3.15 µM and the TGI (HCC-2998 colon) was 2.42 µM. It also gave a TGI (HS 578T breast) of 4.65 µM, a TGI (SK-OV-3 ovarian) of 11.1 µM and a TGI (MOLT-4 leukemia) of 4.94 µM. It also gave a TGI (SN12C renal) of 3.93 µM, a TGI (MDA-N) of 3.21 µM and a TGI (TK-10 renal) of 3.79 µM. For the same molecule, the TGI (UACC-62 melanoma) was 3.07 µM, the TGI (PC-3 prostate) was 3.22 µM and the TGI (BT-549 breast) was 38.6 µM. It also gave a TGI (KM12 colon) of 3.85 µM, a TGI (OVCAR-8 ovarian) of 3.56 µM and a TGI (NCI-H226 lung) of 38.9 µM. For the same molecule, the TGI (SK-MEL-5 melanoma) was 3.11 µM, the TGI (UO-31 renal) was 3.31 µM and the TGI (SNB-75 CNS) was 3.91 µM. It also gave a TGI (HL-60(TB) leukemia) of 3.57 µM, a TGI (SF-268 CNS) of 6.42 µM and a TGI (RXF 393 renal) of 3.22 µM. It also gave a TGI (OVCAR-4 ovarian) of 3.19 µM, a TGI (CAKI-1 renal) of 3.98 µM and a TGI (K-562 leukemia) of 3.71 µM. For the same molecule, the TGI (HT29 colon) was 3.54 µM, the TGI (DU-145 prostate) was 3.73 µM and the TGI (NCI-H522 lung) was 3.33 µM. The TGI (UACC-257 melanoma) was 3.45 µM, the TGI (HOP-62 NSCLC) was 4.07 µM and the TGI (SNB-19 CNS) was 5.96 µM. The TGI (A549 NSCLC) was 3.47 µM and the TGI (MDA-MB-435) was 3 µM.
